Experiments:
[1] = molecular target: T1, GR (LanthaScreen TR-FRET GR Competitive Binding Assay) (Homo sapiens, UniProt P04150); test: LanthaScreen TR-FRET competitive binding assay
T1 construct: gene NR3C1
T1 sequence (P04150 521-777 limits assumed): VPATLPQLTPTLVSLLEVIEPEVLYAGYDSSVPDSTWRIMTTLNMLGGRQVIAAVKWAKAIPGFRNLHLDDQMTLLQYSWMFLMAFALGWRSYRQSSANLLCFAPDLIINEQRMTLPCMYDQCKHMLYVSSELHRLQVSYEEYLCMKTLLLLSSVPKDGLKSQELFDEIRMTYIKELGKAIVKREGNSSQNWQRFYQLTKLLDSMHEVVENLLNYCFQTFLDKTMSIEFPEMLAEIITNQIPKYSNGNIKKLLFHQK
Source text: LanthaScreen TR-FRET competitive binding assay on GR (LanthaScreen TR-FRET GR Competitive Binding Assay)

[2] = molecular target: T2, GR (pCMV-GR11 in Hela cells) (Homo sapiens, UniProt P04150); test: NF-κB-Luc tethered transrepression reporter assay; format: cell-based; details: read-out: Cell transrepression / NF-κb (IC50 μM)
T2 construct: gene NR3C1; GR expressed from pCMV-GR11 (Addgene #89105), transiently transfected in HeLa cells
T2 sequence (P04150 1-777): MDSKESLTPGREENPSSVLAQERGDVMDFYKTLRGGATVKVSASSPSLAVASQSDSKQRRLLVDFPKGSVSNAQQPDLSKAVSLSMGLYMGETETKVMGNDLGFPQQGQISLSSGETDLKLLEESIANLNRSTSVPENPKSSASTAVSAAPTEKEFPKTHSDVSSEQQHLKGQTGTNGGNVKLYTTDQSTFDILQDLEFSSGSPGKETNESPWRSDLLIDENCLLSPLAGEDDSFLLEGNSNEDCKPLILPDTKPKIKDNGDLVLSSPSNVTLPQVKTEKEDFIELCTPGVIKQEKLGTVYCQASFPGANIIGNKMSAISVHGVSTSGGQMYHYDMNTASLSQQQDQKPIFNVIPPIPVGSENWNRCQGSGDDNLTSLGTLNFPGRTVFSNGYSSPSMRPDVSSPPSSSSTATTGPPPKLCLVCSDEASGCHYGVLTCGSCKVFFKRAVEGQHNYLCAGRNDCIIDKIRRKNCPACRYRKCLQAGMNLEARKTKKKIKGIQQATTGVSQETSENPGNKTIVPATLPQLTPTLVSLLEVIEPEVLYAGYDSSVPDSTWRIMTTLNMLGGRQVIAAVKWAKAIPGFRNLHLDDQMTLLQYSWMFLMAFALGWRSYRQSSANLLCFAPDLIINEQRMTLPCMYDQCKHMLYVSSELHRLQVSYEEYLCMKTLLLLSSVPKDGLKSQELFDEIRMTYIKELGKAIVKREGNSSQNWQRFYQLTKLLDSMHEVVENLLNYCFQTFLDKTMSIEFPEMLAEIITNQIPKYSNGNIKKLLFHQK
Source text: NF-κB-Luc tethered transrepression reporter assay on GR (pCMV-GR11 in Hela cells)

IC50 [1]	IC50 [2]	SMILES
1.57 ± 0.54 µM	2.76 ± 0.18 µM	Cc1ccc(S(=O)(=O)N2CCCc3cc(NS(=O)(=O)c4ccc(F)cc4C)ccc32)cc1 [HP‐67]
4.45 ± 0.36 µM	12.2 ± 1.95 µM	COc1ccccc1CN1Cc2cc(NS(=O)(=O)c3ccc(F)cc3)ccc2OC(C)C1=O (stereo not drawn) [HP‐26]
2.53 ± 0.12 µM	2.71 ± 0.72 µM	CC(=O)N1CCc2cc(S(=O)(=O)C(C)CC(=O)NCC(C)c3ccccc3)ccc21 (stereo not drawn) [HP‐24]
